The results in this text go back to patent publication US20230202989A1, “COMPOUNDS” (JANSSEN PHARMACEUTICA NV, priority 2020, published 2023).

Test [1] has as its system IL-1β. The test is described as follows: PBMC assay: inhibition of IL-1β release after LPS stimulation (MSD). Conditions: Homo sapiens, PBMC, 6 h, human PBMCs, 100 ng/ml LPS for 6 hrs, MSD, 96 well plates; read-out: IL1β IC50. The class given is cell-based. Summed up: (§1)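 TNF (EC50) and IL-1β (IC50) were quantified by MSD in supernatants after 6 h stimulation with 100 ng/ml LPS. Thawed healthy-donor PBMCs, 7.5×10^4 per well, were exposed to 1:3 compound dilutions for 30 min beforehand at 37 °C.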

Test [2] relates to TNF. Kind of test: PBMC assay: TNF cytokine levels after LPS stimulation (MSD). Type of test: cell-based. The conditions noted are these: Homo sapiens, PBMC, 6 h, human PBMCs, 100 ng/ml LPS for 6 hrs. The method, boiled down:
as §1

Some results are limits rather than exact numbers.

For orientation: IC50 means the concentration that inhibits the measured activity by half. As usually defined, the EC50 is the concentration at which the effect is half-maximal. Low values mean higher potency in that assay, high ones lower potency in that assay. Take `CCN1C[C@H](NC(=O)Cn2nc(C(C)C)c3cc(C(F)(F)F)ccc3c2=O)CC(F)(F)C1` [Final Cpd X117]: the IC50 in test [1] came to 2.11 µM. In addition, in test [2], the EC50 was greater than 20 µM.
The corresponding values for `CC(C)c1nn(CC(=O)Nc2ccc3nc(C(F)F)cn3n2)c(=O)c2ccc(C(F)(F)F)cc12` [Final Cpd X118] are 2.13 µM and greater than 20 µM.
The corresponding values for `CC(C)c1nn(CC(=O)N[C@H]2C[C@@](O)(C(F)(F)F)C2)c(=O)c2ccc(C(F)(F)F)cc12` [Final Cpd X119] are 2.13 µM and greater than 20 µM.
The matching figures for `CC(C)c1nn(CC(=O)Nc2cc(Cl)c(=O)n(C(F)F)c2)c(=O)c2ccc(C(F)(F)F)cc12` [Final Cpd X120]: 2.57 µM and greater than 20 µM.
Turning to `CC(C)c1nn(CC(=O)NC2(C)CC(O)C2)c(=O)c2ccc(C(F)(F)F)cc12` (stereo not shown) [Final Cpd X121], the IC50 in test [1] was determined as 2.65 µM. The EC50 in test [2] is greater than 20 µM.
The corresponding values for `CC(C)c1nn(CC(=O)N[C@H]2C[C@@H](O)CN(C)C2)c(=O)c2ccc(C(F)(F)F)cc12` [Final Cpd X122] are 2.68 µM and greater than 20 µM.
The matching figures for `CC(C)c1nn(CC(=O)Nc2ccc3cn(C)nc3c2)c(=O)c2ccc(C(F)(F)F)cc12` [Final Cpd X123]: 2.7 µM and greater than 20 µM.
The matching figures for `CC1(c2nn(CC(=O)Nc3ccc4nncn4c3)c(=O)c3ccc(C(F)(F)F)cc23)CC1` [Final Cpd X125]: 2.88 µM and greater than 20 µM.
Consider `CC(C)c1nn(CC(=O)NC2(C)CC(F)(F)C2)c(=O)c2ccc(C(F)(F)F)cc12` [Final Cpd X126], for which the half-maximal inhibitory concentration (IC50) in test [1] was 2.94 µM. This molecule also came in with an EC50 in test [2] greater than 20 µM.
The matching figures for `CC(C)c1nn(CC(=O)Nc2ccn3ccnc3n2)c(=O)c2ccc(C(F)(F)F)cc12` [Final Cpd X127]: 2.94 µM and greater than 20 µM.
The corresponding values for `CC(C)c1nn(CC(=O)NC2CCC(C)(C)OC2)c(=O)c2ccc(C(F)(F)F)cc12` (stereo not shown) [Final Cpd X128] are 2.95 µM and greater than 20 µM.
The matching figures for `CO[C@H]1CC[C@@H](NC(=O)Cn2nc(C(C)C)c3cc(C(F)(F)F)ccc3c2=O)CC1` [Final Cpd X131]: 3.09 µM and greater than 20 µM.
`CC(C)c1nn(CC(=O)Nc2cc(Br)c3ncnn3c2)c(=O)c2ccc(C(F)(F)F)cc12` [Final Cpd X132]: the IC50 in test [1] is 3.25 µM. Moreover, in test [2], the 50% effective concentration (EC50) was greater than 20 µM.
The matching figures for `C[C@]1(O)C[C@@H](NC(=O)Cn2nc(C3(F)CC3)c3cc(C(F)(F)F)ccc3c2=O)C1` [Final Cpd X134]: 3.41 µM and greater than 20 µM.
For `COC(c1nn(CC(=O)Nc2ccc3nncn3c2)c(=O)c2ccc(C(F)(F)F)cc12)C(F)(F)F` (stereo not shown) [Final Cpd X135], in test [1], the 50% inhibitory concentration (IC50) stood at 3.44 µM. For the same molecule, in test [2], the EC50 is greater than 20 µM.
On to `CC(C)(F)c1nn(CC(=O)Nc2ccc3nncn3c2)c(=O)c2ccc(C(F)(F)F)cc12` [Final Cpd X136], for which the IC50 in test [1] was 3.77 µM. In test [2], this molecule yielded a concentration giving a half-maximal response (EC50) greater than 20 µM.
The corresponding values for `CC(C)c1nn(CC(=O)Nc2ccc3nn(C)cc3c2)c(=O)c2ccc(C(F)(F)F)cc12` [Final Cpd X137] are 3.86 µM and greater than 20 µM.
For the molecule `CC(C)c1nn(CC(=O)Nc2ccc3c(c2)ncn3C)c(=O)c2ccc(C(F)(F)F)cc12` [Final Cpd X141], the IC50 in test [1] stood at 4.71 µM. In test [2], the concentration for a half-maximal effect (EC50) is greater than 20 µM.
As to `O=C(Cn1nc(C2(F)CC2)c2cc(C(F)(F)F)ccc2c1=O)Nc1ccc2nncn2c1` [Final Cpd X142], the IC50 in test [1] came to 4.74 µM. Also, the EC50 in test [2] is greater than 20 µM.
The matching figures for `CCN1CCC(NC(=O)Cn2nc(C(C)C)c3cc(C(F)(F)F)ccc3c2=O)CC1` [Final Cpd X143]: 4.93 µM and greater than 20 µM.
The matching figures for `CC(C)Cc1nn(CC(=O)Nc2ccc3nncn3c2)c(=O)c2ccc(C(F)(F)F)cc12` [Final Cpd X144]: 4.95 µM and greater than 20 µM.
The matching figures for `CC(C)(F)c1nn(CC(=O)N[C@H]2C[C@@](C)(O)C2)c(=O)c2ccc(C(F)(F)F)cc12` [Final Cpd X145]: 4.99 µM and greater than 20 µM.
Turning to `CC(C)c1nn(CC(=O)Nc2ccc3cnn(C(F)F)c3c2)c(=O)c2ccc(C(F)(F)F)cc12` [Final Cpd X146], in test [1], the IC50 came to 5.72 µM. In test [2], the EC50 is greater than 20 µM.
The matching figures for `CC(C)c1nn(CC(=O)Nc2cnn(C)c(=O)c2)c(=O)c2ccc(C(F)(F)F)cc12` [Final Cpd X151]: 7.45 µM and greater than 20 µM.
As to `CCN1CCCC(NC(=O)Cn2nc(C(C)C)c3cc(C(F)(F)F)ccc3c2=O)C1=O` (stereo not shown) [Final Cpd X152], the IC50 in test [1] was found to be 7.5 µM. This molecule also returned an EC50 in test [2] greater than 20 µM.
As for `CC(C)c1nn(CC(=O)Nc2ccc(I)nn2)c(=O)c2ccc(C(F)(F)F)cc12` [Final Cpd X154], in test [1], the IC50 is 3.09 µM. For the same molecule, in test [2], the EC50 is greater than 20 µM.
The corresponding values for `CC(C)(F)c1nn(CC(=O)Nc2ccnnc2)c(=O)c2ccc(C(F)(F)F)cc12` [Final Cpd X155] are 7.91 µM and 17.6 µM.
With `CC(C)c1nn(CC(=O)NC2CC(F)(F)C2)c(=O)c2ccc(C(F)(F)F)cc12` [Final Cpd X156], the IC50 in test [1] was 8.77 µM. Also, the EC50 in test [2] is greater than 20 µM.
The matching figures for `COC1(c2nn(CC(=O)Nc3ccc4nncn4c3)c(=O)c3ccc(C(F)(F)F)cc23)CC1` [Final Cpd X158]: 9.99 µM and greater than 20 µM.
Take `CC(C)c1nn(CC(=O)Nc2ccc3c(ncn3C)n2)c(=O)c2ccc(C(F)(F)F)cc12` [Final Cpd X160]: in test [1], the IC50 worked out at 13.4 µM. For the same molecule, the EC50 in test [2] is greater than 20 µM.
`CC(C)c1nn(CC(=O)Nc2ccc(C(F)(F)F)nn2)c(=O)c2ccc(C(F)(F)F)cc12` [Final Cpd X161]: in test [1], the IC50 amounted to 14.2 µM. Also, the EC50 in test [2] was greater than 20 µM.
The matching figures for `CC(C)c1nn(CC(=O)Nc2cc(C#N)c3ncnn3c2)c(=O)c2ccc(C(F)(F)F)cc12` [Final Cpd X162]: 15 µM and greater than 20 µM.
The corresponding values for `Cc1nnc2cc(NC(=O)Cn3nc(C(C)C)c4cc(C(F)(F)F)ccc4c3=O)ccn12` [Final Cpd X165] are 16.1 µM and greater than 20 µM.
The corresponding values for `Cc1cc2nccn2cc1NC(=O)Cn1nc(C(C)C)c2cc(C(F)(F)F)ccc2c1=O` [Final Cpd X167] are 17.8 µM and greater than 20 µM.
Turning to `CC(C)CN1CCc2cc(NC(=O)Cn3nc(C(C)C)c4cc(C(F)(F)F)ccc4c3=O)ccc21` [Final Cpd X168], the 50% inhibitory concentration (IC50) in test [1] is greater than 20 µM. The molecule also gave an EC50 in test [2] greater than 20 µM.
Regarding `CC(C)c1nn(CC(=O)Nc2ccc3nn(C)nc3c2)c(=O)c2ccc(C(F)(F)F)cc12` [Final Cpd X169], the IC50 in test [1] was greater than 20 µM. This molecule also registered an EC50 in test [2] greater than 20 µM.
With `CC(C)c1nn(CC(=O)Nc2ccc3nncn3c2)c(=O)c2ccc(C(F)(F)F)c(C#N)c12` [Final Cpd X170], the IC50 in test [1] is greater than 20 µM. Moreover, the EC50 in test [2] was greater than 20 µM.
For the molecule `CCN1CCc2cc(NC(=O)Cn3nc(C(C)C)c4cc(C(F)(F)F)ccc4c3=O)ccc21` [Final Cpd X171], in test [1], the IC50 is greater than 20 µM. In test [2], this molecule returned an EC50 greater than 20 µM.
On to `CC(C)c1nn(CC(=O)Nc2ccc3c(c2)CCN3C(C)C)c(=O)c2ccc(C(F)(F)F)cc12` [Final Cpd X173], for which the IC50 in test [1] is greater than 20 µM. In test [2], the EC50 is greater than 20 µM.
Regarding `CC(C)c1nn(CC(=O)Nc2ccc(C(F)F)nn2)c(=O)c2ccc(C(F)(F)F)cc12` [Final Cpd X176], the IC50 in test [1] was greater than 20 µM. In test [2], the concentration giving a half-maximal response (EC50) is greater than 20 µM.
On to `CO[C@H]1CC[C@H](NC(=O)Cn2nc(C(C)C)c3cc(C(F)(F)F)ccc3c2=O)CC1` [Final Cpd X177], for which, in test [1], the IC50 was greater than 20 µM. The EC50 in test [2] was greater than 20 µM.
In the case of `CC(C)c1nn(CC(=O)Nc2cc(C(F)(F)F)ncn2)c(=O)c2ccc(C(F)(F)F)cc12` [Final Cpd X178], the IC50 in test [1] was greater than 20 µM. Besides, the EC50 in test [2] is greater than 20 µM.
Regarding `CC(C)c1nn(CC(=O)Nc2ccc(C3CC3)nn2)c(=O)c2ccc(C(F)(F)F)cc12` [Final Cpd X179], in test [1], the 50% inhibitory concentration (IC50) is greater than 20 µM. For the same molecule, the EC50 in test [2] is greater than 20 µM.
In the case of `CC(C)(F)c1nn(CC(=O)Nc2ccncn2)c(=O)c2ccc(C(F)(F)F)cc12` [Final Cpd X180], the IC50 in test [1] was greater than 20 µM. Further, the EC50 in test [2] is greater than 20 µM.
For `CC(C)c1nn(CC(=O)Nc2ncc3ncn(C)c3n2)c(=O)c2ccc(C(F)(F)F)cc12` [Final Cpd X181], in test [1], the IC50 was greater than 20 µM. For the same molecule, the EC50 in test [2] was greater than 20 µM.
As for `O=C(Cn1nc(C(F)F)c2cc(Br)ccc2c1=O)Nc1ccc2nncn2n1` [X-1000], in test [1], the IC50 was found to be 0.122 µM. In test [2], this molecule registered an EC50 greater than 20 µM.
The corresponding values for `O=C(Cn1nc(C2CC2)c2cc(Br)ccc2c1=O)Nc1ccc2nncn2n1` [X-1001] are 0.224 µM and greater than 20 µM.
The corresponding values for `O=C(Cn1nc(C2CC2)c2cc(Cl)ccc2c1=O)Nc1ccc2nncn2n1` [X-1002] are 0.453 µM and greater than 20 µM.
The corresponding values for `CC(C)c1nn(CC(=O)Nc2ccc3nncn3n2)c(=O)c2ccc(C(C)(F)F)cc12` [X-1003] are 0.04 µM and 9.89 µM.
With `CC(C)c1nn(CC(=O)Nc2ccc3nncn3n2)c(=O)c2ccc(Br)cc12` [X-1004], the IC50 in test [1] amounted to 0.041 µM. In addition, in test [2], the concentration for a half-maximal effect (EC50) was greater than 20 µM.
For `CC(C)c1nn(CC(=O)Nc2ccc3cnn(C)c3n2)c(=O)c2ccc(Br)cc12` [X-1005], in test [1], the IC50 is 1.47 µM. This molecule also registered an EC50 in test [2] greater than 20 µM.
The matching figures for `CC(C)c1nn(CC(=O)Nc2ccc3nccn3n2)c(=O)c2ccc(C(C)(F)F)cc12` [X-1006]: 0.128 µM and 4.47 µM.
The corresponding values for `CC(C)c1nn(CC(=O)Nc2ccc3nncn3n2)c(=O)c2ccc(C3(F)CC3)cc12` [X-1007] are 0.015 µM and 2.13 µM.
